One may read the inhibition as the relative decrease from the control value, in per cent. The term IC50 denotes the point on the concentration scale where inhibition reaches its midpoint.

Each structure is given as a SMILES string. Where “and” joins values, the source holds several entries; their conditions need not be identical. Equal values may be shown once. Where a name gives a salt, the structure may show the parent alone.

Assay [1] relates to Acute promyelocytic leukemia NB4 cells. The experiment in a line: Cell growth (CellTiter-Fluor cell viability assay). The class given is cell-based. As to conditions: Homo sapiens, NB-4, 48 h; for IC50: range classes, read-out: IC50 [μM], cell growth inhibitory assay. The source says: CellTiter-Flor® (Promega) is as a nonlytic, single-reagent-addition fluorescence assay that measures the relative number of living cells in a culture population after experimental manipulation. The CellTiter-Fluor™ Cell Viability Assay measures the conserved and constitutive protease activity within live cells and therefore acts as a marker for cell viability.
Acute promyelocytic leukemia NB4 cells, (obtained from the Deutsche Sammlung von Mikroorganismen and Zellkulturen) in exponential growth, were incubated for 48 h with different concentrations of the inhibitors. After 48 h a volume of CellTiter-Fluor® Reagent equal to one fifth of volume of cell culture medium was added. The content was mixed and incubates for at least 90 min at 37° C. degree to obtain a stable signal. The fluorescence was recorded using an excitation wavelength of 360 nm and an emission at 535 nm. The IC50 was calculated using GraphPad Software.

For assay [2], the target named is T1, human recombinant KDM1A (LSD1)/CoRest (Homo sapiens, UniProt O60341).
T1 construct: made in house; host or cells: E. coli
Nature of the assay: Assay of enzyme inhibition of KDM1A (LSD1), Amplex UltraRed/peroxidase coupled. The class given is biochemical. As to conditions: 15 min preincubation, 4.5 μM mono-methylated H3-K4 peptide, range classes, read-out: IC50 [μM], KDM1A inhibition assay. The procedure: The experiments were performed using a mono-methylated H3-K4 peptide containing 21 amino acids (custom synthesis done by Thermo Scientific) as substrate and in a 50 mM TRIS, pH 8, 0.05 mg/ml BSA buffer.
The demethylase activity was estimated under aerobic conditions and at RT by measuring the release of H2O2 produced during the catalytic process by the Amplex® UltraRed detection system coupled with peroxidase assay. Briefly, a fixed amount of KDM1A/CoRest complex was incubated at RT for 15 minutes in the absence and/or the presence of various concentrations of inhibitor (e.g. from 0 to 100 μM, depending on the inhibitor strength) and of Amplex® UltraRed detection system coupled with peroxidase assay. The inhibitors were tested twice in duplicates at each concentration. […] The conversion of the Amplex® Ultra Red reagent to resorufin was monitored in continuous by fluorescence (excitation at 540 nm, emission at 590 nm) using a microplate reader (Infinite 200, Tecan). Arbitrary units were used to measure the level of H2O2 produced in the absence and/or in the presence of inhibition. The maximum demethylase activity of KDM1A/CoRest was obtained in the absence of inhibitors and corrected for background fluorescence in the absence of KDM1A/CoRest. The IC50 was calculated using GraphPad Software.

Take `N[C@@H]1C[C@H]1c1ccccc1` (racemic) [tranylcypromine, reference compound]: in assay [1] (100 μM, read-out: inhibition at 100 μM, cell growth inhibitory assay), the inhibition at 100 µM stood at 10%.

As to `N[C@]1(Cc2ccccc2)C[C@H]1c1ccccc1` (relative stereo) [Example A-8, trans-1-benzyl-2-phenyl-cyclopropanamine hydrochloride], in assay [1], the IC50 was in the range of 50 to 100 µM.

For `N[C@]1(CCc2ccccc2)C[C@H]1c1ccccc1` (relative stereo) [Example A-11, trans-1-phenethyl-2-phenyl-cyclopropanamine hydrochloride], in assay [1], the IC50 lay in the range of 10 to 50 µM.

As for `CC[C@@]1(N)C[C@H]1c1ccc(Br)cc1` (relative stereo) [Example A-12, trans-2-(4-bromophenyl)-1-ethyl-cyclopropanamine hydrochloride], the values for the IC50 in assay [2] and in assay [1] were 0.1 to 1 µM and 10 to 50 µM, respectively.

Consider `N[C@]1(Cc2ccccc2)C[C@H]1c1ccc(Br)cc1` (relative stereo) [Example A-13, trans-1-benzyl-2-(4-bromophenyl)cyclopropanamine hydrochloride], for which the IC50 in assay [2] is 0.1 to 1 µM; in assay [1], 10 to 50 µM.

`CC[C@@]1(N)C[C@H]1c1ccc2ncccc2c1` (relative stereo) [Example A-14, trans-1-ethyl-2-(6-quinolyl)cyclopropanamine dihydrochloride]: the IC50 in assay [1] lay within 10 to 50 µM.

On to `N[C@]1(Cc2ccc3ccccc3c2)C[C@H]1c1ccccc1` (relative stereo) [Example A-15, trans-1-(2-naphthylmethyl)-2-phenyl-cyclopropanamine hydrochloride], for which the IC50 in assay [1] is ≤ 10 µM.

Take `CC[C@@]1(N)C[C@H]1c1ccc(OC(F)(F)F)cc1` (relative stereo) [Example A-24, 1-ethyl-(trans)-2-[4-(trifluoromethoxy)phenyl] cyclopropanamine hydrochloride]: the figures for the IC50 in assay [2] and in assay [1] were 1 to 5 µM and 50 to 100 µM, respectively.

As to `N[C@]1(Cc2ccc3ccccc3c2)C[C@H]1c1ccc(Br)cc1` (relative stereo) [Example A-29, trans-2-(4-bromophenyl)-1-(2-naphthylmethyl)cyclopropanamine hydrochloride], the results for the IC50 in assay [2] and in assay [1] were 0.1 to 1 µM and 10 to 50 µM, respectively.

Regarding `CC[C@@]1(N)C[C@H]1c1ccc(NC(=O)c2ccc3ccccc3c2)cc1` (relative stereo) [Example A-30, trans-N-[4-[2-amino-2-ethyl-cyclopropyl]phenyl]naphthalene-2-carboxamide hydrochloride], the concentration for half-maximal inhibition (IC50) in assay [1] lay within 10 to 50 µM.

In the case of `CC[C@]1(N)C[C@@H]1c1ccccc1NC(=O)c1cccc(NC(=O)OCc2ccccc2)c1` (relative stereo) [Example A-32, benzyl N-[3-[[2-[(trans)-2-amino-2-ethyl-cyclopropyl]phenyl]carbamoyl]phenyl]carbamate hydrochloride], the IC50 in assay [1] lay in the range of 10 to 50 µM.

On to `CC[C@@]1(N)C[C@H]1c1cccc(NC(=O)c2cccc(NC(=O)OCc3ccccc3)c2)c1` (relative stereo) [Example A-33, benzyl N-[3-[[3-[(trans)-2-amino-2-ethyl-cyclopropyl]phenyl]carbamoyl]phenyl]carbamate hydrochloride], for which the IC50 in assay [2] fell in the range of 0.1 to 1 µM; in assay [1] it was 10 to 50 µM.

As to `CC[C@@]1(N)C[C@H]1c1ccc(NC(=O)c2cccc(Cl)c2)cc1` (relative stereo) [Example A-34, N-[4-[(trans-2-amino-2-ethyl-cyclopropyl]phenyl]-3-chloro-benzamide hydrochloride], the IC50 in assay [2] is < 0.1 µM; in assay [1], 10 to 50 µM.

As to `CC[C@@]1(N)C[C@H]1c1ccc(NC(=O)c2cccc(NC(=O)OCc3ccccc3)c2)cc1` (relative stereo) [Example A-37, benzyl N-[3-[[4-[(trans)-2-amino-2-ethyl-cyclopropyl]phenyl]carbamoyl]phenyl]carbamate hydrochloride], the IC50 in assay [2] is < 0.1 µM; in assay [1] it was 10 to 50 µM.

Turning to `CC[C@@]1(N)C[C@H]1c1ccc(NC(=O)c2ccc(NC(=O)OCc3ccccc3)cc2)cc1` (relative stereo) [Example A-38, benzyl N-[4-[[4-[(trans)-2-amino-2-ethyl-cyclopropyl]phenyl]carbamoyl]phenyl]carbamate hydrochloride], the IC50 in assay [1] was ≤ 10 µM.

Turning to `CC[C@@]1(N)C[C@H]1c1ccc(NC(=O)CCc2ccccc2)cc1` (relative stereo) [Example A-40, N-[4-[(trans)-2-amino-2-ethyl-cyclopropyl]phenyl]-3-phenyl-propanamide hydrochloride], the IC50 was < 0.1 µM in assay [2] and ≤ 10 µM in assay [1].

For `CC[C@@]1(N)C[C@H]1c1ccc(OCc2ccccc2)cc1` (relative stereo) [Example A-41, 2-(4-benzyloxyphenyl)- trans-1-ethyl-cyclopropanamine hydrochloride], the figures for the IC50 in assay [2] and in assay [1] were 0.1 to 1 µM and 10 to 50 µM, respectively.

For `N[C@]1(Cc2ccccc2)C[C@H]1c1ccc(OCc2ccccc2)cc1` (relative stereo) [Example A-43, trans-1-benzyl-2-(4-benzyloxyphenyl) cyclopropanamine hydrochloride], the IC50 in assay [2] lay in the range of 0.1 to 1 µM; in assay [1] it was 10 to 50 µM.

As to `N[C@]1(Cc2ccc3ccccc3c2)C[C@H]1c1ccc(NC(=O)c2cccc(NC(=O)OCc3ccccc3)c2)cc1` (relative stereo) [Example A-45, benzyl N-[3-[[4-[(trans)-2-amino-2-(2-naphthylmethyl)cyclopropyl]phenyl]carbamoyl]phenyl] carbamate hydrochloride], the IC50 in assay [1] was ≤ 10 µM.

On to `Nc1ccc([C@@H]2C[C@]2(N)Cc2ccc3ccccc3c2)cc1` (relative stereo) [Example A-119, 4-[trans-2-amino-2-(2-naphthylmethyl)cyclopropyl]aniline 2,2,2-trifluoroacetic acid], for which the half-maximal inhibitory concentration (IC50) in assay [1] is ≤ 10 µM.

In the case of `N[C@@]1(CO)C[C@H]1c1ccccc1` (relative stereo) [Example B-2, [1-Amino-(cis)-2-phenyl-cyclopropyl]methanol], the IC50 in assay [1] lay in the range of 50 to 100 µM.

Take `C[C@@]1(NCc2nnc(N)o2)C[C@H]1c1ccccc1` (relative stereo) [Example C-32, 5-[[[trans-1-methyl-2-phenyl-cyclopropyl]amino]methyl]-1,3,4-oxadiazol-2-amine]: the IC50 in assay [2] lay in the range of 0.1 to 1 µM.

Turning to `CC(=O)Nc1ccc([C@@]2(N)C[C@H]2c2ccccc2)cc1` (relative stereo) [Example D-6, N-[4-[trans-1-amino-2-phenyl-cyclopropyl]phenyl]acetamide hydrochloride], the IC50 in assay [2] fell in the range of 0.1 to 1 µM.

Regarding `N[C@]1(Cc2ccc3ccccc3c2)C[C@H]1c1ccc(-n2cc(-c3cccc(NC(=O)OCc4ccccc4)c3)nn2)cc1` [Example A-123, benzyl N-[3-[1-[4-[2-amino-2-(2-naphthylmethyl)cyclopropyl]phenyl]triazol-4-yl]phenyl] carbamate hydrochloride], the IC50 in assay [2] is < 0.1 µM.

Consider `CC[C@]1(N)C[C@@H]1c1ccc(NC(=O)c2ccc(-c3ccccc3)cc2)cc1` [Example A-128, N-[4-[(1R,2S)-2-amino-2-ethyl-cyclopropyl]phenyl]-4-phenyl-benzamide hydrochloride], for which the IC50 in assay [2] is < 0.1 µM.

Take `CC[C@@]1(NCc2c(OC)ccc3ccccc23)C[C@H]1c1ccccc1` [Example C-2, (1R,2S)-1-ethyl-N-[(2-methoxy-1-naphthyl)methyl]-2-phenyl-cyclopropanamine]: in assay [1], the IC50 lay in the range of 50 to 100 µM.

`CN1CCN(C(=O)CN[C@@]2(C)C[C@@H]2c2ccccc2)CC1` [Example C-3, 2-[[(1S,2R)-1-methyl-2-phenyl-cyclopropyl]amino]-1-(4-methylpiperazin-1-yl)ethanone dihydrochloride]: the half-inhibitory concentration (IC50) in assay [2] is < 0.1 µM and 1 to 5 µM.

On to `C[C@]1(NCC(=O)N2CC[C@H](N)C2)C[C@@H]1c1ccccc1` [Example C-5, 1-[(3S)-3-aminopyrrolidin-1-yl]-2-[[(1S,2R)-1-methyl-2-phenyl-cyclopropyl]amino] ethanone hydrochloride], for which, in assay [2], the 50% inhibitory concentration (IC50) was in the range of 0.1 to 1 µM.

Turning to `CN1CCN(C(=O)CN[C@]2(C)C[C@H]2c2ccccc2)CC1` [Example C-25, 2-[[(1R,2S)-1-methyl-2-phenyl-cyclopropyl]amino]-1-(4-methylpiperazin-1-yl)ethanone 2,2,2-trifluoroacetic acid], in assay [2], the IC50 was < 0.1 µM.

As for `CN1CCN(C(=O)CN[C@]2(C)C[C@@H]2c2ccccc2)CC1` [Example C-26, 2-[[(1R,2R)-1-methyl-2-phenyl-cyclopropyl]amino]-1-(4-methylpiperazin-1-yl)ethanone 2,2,2-trifluoroacetic acid], the IC50 in assay [2] was 1 to 5 µM.
